The source made the active and inactive calls. The rule behind the calls is not given here.
Key:
Jurkat [1] = assay: Induction of apoptosis in human Jurkat cells assessed as intracellular calcium level at 0.8 uM in presence of Iodo-1 by spectrofluorimetric analysis; type: functional, cell-based
A549 [2] = assay: Induction of apoptosis in human A549 cells incubated for 72 hrs by Annexin-V staining based flow cytometry analysis relative to control; type: functional
MCF7 [3] = assay: Anti-proliferative activity against human MCF7 cells assessed as growth inhibition incubated for 72 hrs by alamar blue staining based fluorometric assay; type: functional
OVCAR-3 [4] = assay: Anti-proliferative activity against human OVCAR-3 cells assessed as growth inhibition incubated for 72 hrs by alamar blue staining based fluorometric assay; type: functional
RKO [5] = assay: Anti-proliferative activity against human RKO cells assessed as growth inhibition incubated for 72 hrs by alamar blue staining based fluorometric assay; type: functional
U-87 MG = assay: Anti-proliferative activity against human U87 cells assessed as growth inhibition incubated for 72 hrs by alamar blue staining based fluorometric assay; type: functional, U-87MG ATCC
HeLa = assay: Anti-proliferative activity against human HeLa cells assessed as growth inhibition incubated for 72 hrs by alamar blue staining based fluorometric assay; type: functional
HCT-116 [6] = assay: Anti-proliferative activity against human HCT-116 cells assessed as growth inhibition incubated for 72 hrs by alamar blue staining based fluorometric assay; type: functional
A549 [7] = assay: Anti-proliferative activity against human A549 cells assessed as growth inhibition incubated for 72 hrs by alamar blue staining based fluorometric assay; type: functional
HCT-116 [8] = assay: Induction of apoptosis in human HCT-116 cells incubated for 72 hrs by Annexin-V staining based flow cytometry analysis relative to control; type: functional
RKO [9] = assay: Induction of apoptosis in human RKO cells incubated for 72 hrs by Annexin-V staining based flow cytometry analysis relative to control; type: functional
MCF7 [10] = assay: Induction of apoptosis in human MCF7 cells incubated for 72 hrs by Annexin-V staining based flow cytometry analysis relative to control; type: functional
OVCAR-3 [11] = assay: Induction of apoptosis in human OVCAR-3 cells incubated for 72 hrs by Annexin-V staining based flow cytometry analysis relative to control; type: functional
Jurkat [12] = assay: Anti-proliferative activity against human Jurkat cells assessed as growth inhibition incubated for 72 hrs by alamar blue staining based fluorometric assay; type: functional
HuT78 = assay: Anti-proliferative activity against human HuT78 cells assessed as growth inhibition incubated for 72 hrs by alamar blue staining based fluorometric assay; type: functional
CCRF-HSB-2 = assay: Anti-proliferative activity against human CCRF-HSB-2 cells assessed as growth inhibition incubated for 72 hrs by alamar blue staining based fluorometric assay; type: functional
MOLT-4 = assay: Anti-proliferative activity against human MOLT-4 cells assessed as growth inhibition incubated for 72 hrs by alamar blue staining based fluorometric assay; type: functional
SUD4 = assay: Anti-proliferative activity against human SU-DHL-4 cells assessed as growth inhibition incubated for 72 hrs by alamar blue staining based fluorometric assay; type: functional
Ramos = assay: Anti-proliferative activity against human Ramos cells assessed as growth inhibition incubated for 72 hrs by alamar blue staining based fluorometric assay; type: functional
Raji = assay: Anti-proliferative activity against human Raji cells assessed as growth inhibition incubated for 72 hrs by alamar blue staining based fluorometric assay; type: functional
DB = assay: Anti-proliferative activity against human DB cells assessed as growth inhibition incubated for 72 hrs by alamar blue staining based fluorometric assay; type: functional
K562 = assay: Anti-proliferative activity against human K562 cells assessed as growth inhibition incubated for 72 hrs by alamar blue staining based fluorometric assay; type: functional
THP-1 = assay: Anti-proliferative activity against human THP-1 cells assessed as growth inhibition incubated for 72 hrs by alamar blue staining based fluorometric assay; type: functional
RPMI-8226 = assay: Anti-proliferative activity against human RPMI-8226 cells assessed as growth inhibition incubated for 72 hrs by alamar blue staining based fluorometric assay; type: functional
Jurkat [13] = assay: Cytotoxicity in tubulin in human Jurkat cells assessed as tubulin acetylation at 0.2 uM incubated for 24 hrs by Western blotting analysis; type: functional, cell-based
Jurkat [14] = assay: Cytotoxicity in human Jurkat cells assessed as histone acetylation at 0.2 uM incubated for 24 hrs by Western blotting analysis; type: functional, cell-based
Jurkat [15] = assay: Induction of apoptosis in human Jurkat cells assessed as decrease in FL-Bid at 5 uM incubated for 24 hrs by Western blotting analysis
J.gamma1 [16] = assay: Induction of apoptosis in human J.gamma1 cells assessed as increased intracellular calcium level at 1 uM in presence of Iodo-1 and Ionomycin by spectrofluorimetric analysis; type: functional, cell-based
J.gamma1 [17] = assay: Induction of apoptosis in human J.gamma1 cells assessed as increased intracellular calcium level at 1 uM in presence of Iodo-1 by spectrofluorimetric analysis; type: functional, cell-based
Jurkat [18] = assay: Induction of apoptosis in human Jurkat cells assessed as increase in intracellular calcium level at 0.25 to 1 uM in presence of Iodo-1 and Ionomycin by spectrofluorimetric analysis; type: functional, cell-based; settings: dose 0.25-1 µM
Jurkat [19] = assay: Induction of apoptosis in human Jurkat cells assessed as increase in intracellular calcium level in presence of Iodo-1 by spectrofluorimetric analysis; type: functional, cell-based; settings: dose 0.25-1 µM
J.gamma1 [20] = assay: Induction of apoptosis in human J.gamma1 cells at 0.2 uM incubated for 24 hrs by Annexin-V staining based flow cytometry analysis relative to control; type: functional
Jurkat [21] = assay: Induction of apoptosis in human Jurkat cells assessed as increased intracellular calcium level in presence of Iodo-1 and U73122 by spectrofluorimetric analysis; type: functional, cell-based
J.gamma1 [22] = assay: Induction of apoptosis in human J.gamma1 cells assessed as increased intracellular calcium level in presence of Iodo-1 and U73122 by spectrofluorimetric analysis; type: functional, cell-based

COc1ccc2c(c1)CC[C@@H]1[C@@H]2CC[C@]2(C)[C@@H](NCCCCCCN3C(=O)CCC3=O)CC[C@@H]12
Activity (Jurkat [1]): inactive

CN(C)Cc1c(C(=O)NCCOc2ccc(C(=O)NO)cc2)oc2ccccc12.Cl [ABEXINOSTAT HYDROCHLORIDE]
Activity (A549 [2]): 47%
GI50 (MCF7 [3]): 150 nM
GI50 (OVCAR-3 [4]): 160 nM
GI50 (RKO [5]): 1500 nM
GI50 (U-87 MG): 1200 nM
GI50 (HeLa): 200 nM
GI50 (HCT-116 [6]): 200 nM
GI50 (A549 [7]): 180 nM
Activity (HCT-116 [8]): 70%
Activity (RKO [9]): 45%
Activity (MCF7 [10]): 37%
Activity (OVCAR-3 [11]): 55%
GI50 (Jurkat [12]): 110 nM
GI50 (HuT78): 110 nM
GI50 (CCRF-HSB-2): 100 nM
GI50 (MOLT-4): 120 nM
GI50 (SUD4): 100 nM
GI50 (Ramos): 130 nM
GI50 (Raji): 120 nM
GI50 (DB): 150 nM
GI50 (K562): 150 nM
GI50 (THP-1): 75 nM
GI50 (RPMI-8226): 120 nM
Activity (Jurkat [13]): Active
Activity (Jurkat [14]): Active
Activity (Jurkat [15]): Active

C/C=C(/C)C(=O)O[C@H]1C(C)=C2[C@H]([C@@H]1OC(=O)CCCCCCC)[C@@](C)(OC(C)=O)C[C@H](OC(=O)CCC)[C@@]1(O)[C@H]2OC(=O)[C@@]1(C)O [THAPSIGARGIN]
Activity (J.gamma1 [16]): Active
Activity (J.gamma1 [17]): Active
Activity (Jurkat [18]): Active
Activity (Jurkat [19]): Dose-Dependent Effect
Activity (J.gamma1 [20]): 12%
Activity (Jurkat [21]): Active
Activity (J.gamma1 [22]): Active

From ChEMBL document CHEMBL5715942, “A novel histone deacetylase 8 (HDAC8)-specific inhibitor PCI-34051 induces apoptosis in T-cell lymphomas” (Leukemia, 2008)
